The values below come from patent US12569495B2, “Inhibitors of porcine reproductive and respiratory syndrome virus” (UNIVERSITY OF CONNECTICUT, priority 2020, dated 2026).

The test system of assay [1] is PRRSV strain VR-2332. The assay is described as follows: qRT-PCR for PRRSV RNA in infected PAMs. The class given is cell-based. The following applies: 15 μM; VR-2332; 24 h. On the procedure: Total RNA was extracted from PAMs infected with PRRSV using RNeasy Mini Kit (Qiagen, Germantown, MD) according to the manufacturer's instruction. RNA concentrations were measured using a Nanodrop spectrophotometer (Thermo Fisher Scientific). GAPDH was used as a housekeeping gene for gene expression normalization. Data were processed with the software associated with ABI 7500.
(§1) For PRRSV infection of PAM cells, PAMs were seeded one day prior to infection. […] Cells were inoculated with VR-2332, SDSU73, NADC30 or Lelystad PRRSV at MOI=0.1 for 1 h. The 24 h cell medium supernatant was stored at −80° C. until use.
For orientation: In qPCR the cycle at which signal appears reflects the starting amount.

For assay [2], the target named is T1, protein-protein interactions (PPI) between CD163-SRCR5 domain and PRRSV GP2a protein (Sus scrofa, UniProt Q2VL90).
T1 construct: The amplified cDNA fragments of SRCR2 or SRCR5 were subcloned into the pBiFC-VN155(I152L) vector; Myc tag (from vector backbone pMyc-CMV); expressed in transfected cells; host or cells: HEK293T
The assay can be described thus: BiFC assay between SRCR5-VN and GP2a-VC proteins. The format is cell-based, porcine CD163; PRRSV. The following applies: for inhibition of CD163-SRCR5/GP2a PPI in the BiFC assay, B7 analogues: HEK293T cells, DMSO as Ctrl, concentration not given; for inhibitory function in BiFC assay compared with B7: methyl and/or fluoro groups removed from the benzenesulfonamide moiety. From the text: The N-terminus and C-terminus of the truncated Venus-I152L were inserted into vector backbone pMyc-CMV and pCMV-HA, constituting commercial plasmids pBiFC-VN155(I152L) and pBiFC-VC155, respectively (Addgene, Watertown, MA, USA). See Kodama and Hu, Biotechniques 49:793-805 (2010). cDNA fragments for the scavenger receptor cysteine-rich domain 2 (SRCR2) and SRCR5 of porcine CD163 receptor, and for PRRSV glycoproteins GP2a and GP4 were amplified by RT-PCR. The amplified cDNA fragments of SRCR2 or SRCR5 were subcloned into the pBiFC-VN155(I152L) vector digested with EcoRI/BglII. For constructions of GP2a and GP4 fusion proteins, cDNA fragments encoding GP2a or GP4 were subcloned into the pBiFC-VC155 vector digested with EcoRI/BglII. All plasmid clones were verified by DNA Sanger sequencing.
HEK293T cells cultured in 12-well plates were transfected with appropriate plasmids for each BiFC assay using FuGENE® 6 (Promega, Madison, WI, USA). After 5 h, various concentrations of chemical compounds were added to the culture media. DMSO was used as the vehicle control. Fluorescence images of treated cells at 24 h after plasmid transfection were captured using an inverted Nikon fluorescence microscope. Fluorescence intensity of treated cells was measured by ImageJ.
Using the previously described BiFC vector based on the fragmented venus protein (VN-155[I152L], hereafter named VN) and (VC-155, hereafter named VC), fusion protein constructs were established between the porcine CD163 protein SRCR5 or SRCR2 domain and VN, and between the PRRSV minor glycoproteins (GP2a or GP4) and VC (FIG. 1A, 2). See Kodama et al., Biotechniques 49(5): 793-805 (2010). These plasmids were co-expressed in HEK293T cells to evaluate the PPIs between the SRCR5 domain and GP2a or GP4.
The BiFC assays was tested to determine whether it could identify small molecules with potential to block the protein-protein interactions between CD163 and PRRSV. A customized virtual screen of a library of commercially available small molecules was performed with the AtomNet® model at a region centered around R561 (FIG. 3) based on the available 3-D protein structure of porcine CD163-SRCR5 domain, and 74 compounds predicted to target this potential binding site were procured. Ma et al., J. Virol. 91(3): e01897-16 (2017). These compounds were tested using the BiFC assay, to evaluate their ability to inhibit the PPI between GP2a and SRCR5. Plasmids were co-transfected in HEK293T cells, 4 h later, compounds were individually administered to cells at 5 μM. Twenty-four hours later, images were taken under a fluorescence microscope and the fluorescence quantified. […] Until these studies, there has been no known biological activity reported for compound B7.

The test system of assay [3] is PRRSV strain VR-2332. The assay can be described thus: PRRSV titration assay of culture media of infected PAMs. The format is cell-based. The following applies: 15 μM; for log reduction of viral titer: pre- and post-inoculation treatment; for inhibitory function in PRRSV infection assay compared with B7: qRT-PCR and titration (FIG. 7B, 7C). Here is the method:
as §1
For PRRSV titration assay, MARC145 cells were seeded in 48-well plates and grew to ˜80% density before inoculation. Viral supernatants were prepared by 10-fold serial dilution, and 100 μl of the dilutions was added per well in six replicates. Inocula were removed from cells after 2 h and replaced with 0.5 mL of DMEM supplemented with 2% FBS, 2 mM glutamine, 0.1 mM MEM non-essential amino acids, 50 U/mL penicillin, and 50 μg/mL streptomycin (Invitrogen). Cells were cultured at 37° C. for 6 days and any cytopathic effects were observed and recorded. The PRRSV titer was calculated using the Reed and Muench method and expressed as median tissue culture infectious dose (TCID50/mL). Reed and Muench, Am. J. Epidemiol. 27(3): 493-497 (1938).

T1 sequence (Q2VL90 477-577): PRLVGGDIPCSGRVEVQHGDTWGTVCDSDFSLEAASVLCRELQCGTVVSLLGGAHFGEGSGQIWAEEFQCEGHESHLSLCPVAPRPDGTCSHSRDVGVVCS

As to `Cc1ccc(S(=O)(=O)Nc2nc3ccccc3nc2N2CCOCC2)cc1` [Compound B7-A5, 4-methyl-N-(3-morpholinoquinoxalin-2-yl)benzenesulfonamide], the “PRRSV RNA level in treated PAMs (qRT-PCR), B7 analogues” value in the assay on PRRSV strain VR-2332 [1] is given as “failed to inhibit PRRSV RNA level”. Also, in assay [2], the “inhibition of CD163-SRCR5/GP2a PPI in the BiFC assay, B7 analogues” value (“inhibition … in the BiFC assay, B7 analogues” below) was “completely blocked their ability to inhibit”.

Regarding `Cc1ccc(S(=O)(=O)Nc2nc3ccccc3nc2Nc2cccc(S(=O)(=O)N3CCCCC3)c2)cc1` [Compound B7-A4, 4-methyl-N-[3-(3-piperidin-1-ylsulfonylanilino)quinoxalin-2-yl] benzenesulfonamide], the “inhibition … in the BiFC assay, B7 analogues” value in assay [2] was “does not eliminate these compounds' ability to inhibit”. For the same molecule, the “log reduction of viral titer” value in the assay on PRRSV strain VR-2332 [3] (24 h) amounted to 2.8 log.

Regarding `Cc1ccccc1S(=O)(=O)Nc1nc2ccccc2nc1N1CCOCC1` [Compound B7-A6, 2-methyl-N-(3-morpholin-4-ylquinoxalin-2-yl) benzenesulfonamide], the “inhibition … in the BiFC assay, B7 analogues” value in assay [2] was “completely blocked their ability to inhibit”.

As to `Nc1cccc(S(=O)(=O)N2CCOCC2)c1` [Compound B7-A7, 3-(morpholinosulfonyl)aniline], in the assay with PRRSV strain VR-2332 [3] (24 h), the “inhibition of PRRSV infection of PAMs (titration of culture media), B7 analogues” value is listed as “none of these 2 compounds inhibited PRRSV infection of PAMs”.

`O=S(=O)(Nc1nc2ccccc2nc1Nc1ccc(Cl)c(S(=O)(=O)N2CCOCC2)c1)c1ccccc1` [Compound B7-A1, N-[3-(4-chloro-3-morpholin-4-ylsulfonylanilino)quinoxalin-2-yl] benzenesulfonamide]: the “inhibitory function in BiFC assay compared with B7” value in assay [2] is “weakened the compound's inhibitory function”. In addition, in the assay on PRRSV strain VR-2332 [3] (24 h), the “log reduction of viral titer” value turned out to be 2.2 log. Besides, the “inhibitory function in PRRSV infection assay compared with B7” value with PRRSV strain VR-2332 [3] is on record as “weakened the compound's inhibitory function”.

In the case of `O=S(=O)(Nc1nc2ccccc2nc1Nc1cccc(S(=O)(=O)N2CCOCC2)c1)c1ccccc1` [Compound B7-A3, N-[3-(3-morpholin-4-ylsulfonylanilino)quinoxalin-2-yl] benzenesulfonamide], the “inhibitory function in BiFC assay compared with B7” value in assay [2] is recorded as “weakened the compound's inhibitory function”. Moreover, the “log reduction of viral titer” value in the assay with PRRSV strain VR-2332 [3] (24 h) is listed as 1.2 log. For the same molecule, in the assay with PRRSV strain VR-2332 [3], the “inhibitory function in PRRSV infection assay compared with B7” value is given as “weakened the compound's inhibitory function”.

Regarding `Cc1ccccc1S(=O)(=O)Nc1nc2ccccc2nc1Nc1ccc(S(=O)(=O)N2CCOCC2)cc1` [Compound B7-A2, 2-methyl-N-[3-(4-morpholin-4-ylsulfonylanilino)quinoxalin-2-yl] benzenesulfonamide], in assay [2], the “inhibition … in the BiFC assay, B7 analogues” value is recorded as “does not eliminate these compounds' ability to inhibit” and the “inhibitory function in BiFC assay compared with B7” value was “weakened the compound's inhibitory function”. The “log reduction of viral titer” value in the assay on PRRSV strain VR-2332 [3] (24 h) is 2.4 log. Also, the “inhibitory function in PRRSV infection assay compared with B7” value with PRRSV strain VR-2332 [3] was “weakened the compound's inhibitory function”.
